{
  "source": "paper PMC5955599",
  "about": "“The HTLV-1 gp21 fusion peptide inhibits antigen specific T-cell activation in-vitro and in mice” (PLoS Pathogens, 2018)",
  "key": {"[1]": {"test_system": "mouse MOG35-55–antigen specific T cells", "details": "XTT, n = 4", "description": "Aliquots of 10^4 cells were distributed onto a 96-well plate in the presence of 1.25–40μM of the relevant peptides for 16 or 72 hours. Following incubation, XTT reaction solution (benzene sulfonic acid hydrate and N-methyl dibenzopyrazine methyl sulfate, mixed in a proportion of 50:1), was added for 2 hours. Optical density was read at 450-nm wavelength. The percentage of toxicity was calculated relative to the control, 10^4 cells in medium with no peptide added.\nViability of cells was analyzed by an XTT cytotoxicity assay. MOG35-55–antigen specific T cells were incubated with peptides at concentrations ranging from 40μM to 2.5μM in serial dilutions (from black to light gray respectively). (A) Viability was analyzed following overnight (16 hours) incubation with peptides. (B) Viability was analyzed following 72 hour incubation with the peptide. The data is presented as mean percent viability. Error bars represent ± S.E.M. n = 4. (TIF) Click here for additional data file."}, "[2]": {"test_system": "C57BL/6 female mice", "assay": "MOG35-55-induced experimental autoimmune encephalomyelitis (EAE)", "type": "in vivo, mouse", "description": "(A-B) MOG35-55–antigen specific T-cells were activated by irradiated MOG35-55 presenting APCs, in the presence of HTLV FP or HTLV Scr at 10μM. (A) The proliferative responses were assessed by H^3-thymidine incorporation assay, and normalized to the proliferation of non-activated T-cells. The data is presented as mean inhibition of proliferation. n = 12. (B) IFN-γ was measured by ELISA assay. n = 12. (C-D) EAE was induced in C57BL/6 female mice that were treated with a single dose of HTLV FP, HTLV Scr or vehicle. […] (C) Direct clinical measurement of EAE phenotype in a 5-point scale with increased disease symptoms correlating with higher score value. The data is presented as mean EAE clinical score. (D) Mice were weighed the day before EAE induction, and the change (as a percentage) in weight was recorded. The data is presented as mean change from the initial weight. One-way ANOVA was used for statistical analysis. ^a HTLV FP ≠ Vehicle; ^b HTLV FP ≠ Vehicle & HTLV Scr; ^c HTLV FP ≠ HTLV Scr. ^a,b,cP<0.05. (E) Spleenocytes were harvested at 26 DPI and stimulated using MOG35-55. The proliferative responses were assessed by H^3-thymidine incorporation assay and normalized to the proliferation of non-activated T-cells. The data is presented as counts per minute (CPM). n = 7. (F-G) Spleenocytes were harvested at 26 DPI and stimulated using MOG35-55. Media was collected 48 hours following activation and secretion of IFN-γ and IL4 was measured by ELISA assay. […] One-way ANOVA was used for statistical analysis. *P<0.05;**P<0.01;***P<0.001; ns, not significant.\nEAE was induced in 9-week-old wild type and homozygous C57BL/6 female mice (Harlan Laboratories Israel/ Weizmann Institute animal facilities) by injecting a peptide comprising residues 35–55 of mouse myelin oligodendrocyte glycoprotein (MOG35–55; PolyPeptide Laboratories, Strasbourg, France). Mice were injected subcutaneously above the lumbar spinal cord with 100 μl of emulsion containing 200 μg/mouse of the encephalitogenic peptide in complete Freund’s adjuvant (BD-Difco) enriched with 250 μg/mouse of heat-inactivated Mycobacterium tuberculosis (BD-Difco) at 0 days post-induction (DPI). The HTLV FP was dissolved in PBS and added to the emulsion (1mg/kg). Pertussis toxin (Enzo Life Sciences) at a dose of 300 ng per mouse was injected intraperitoneally immediately after the encephalitogenic injection, as well as at […]. EAE disease was scored using a five-point grading with 0 for no clinical disease; 1, tail weakness; 2, paraparesis (incomplete paralysis of one or two hindlimbs); 3, paraplegia (complete paralysis of one or two hindlimbs); 4, paraplegia with forelimb weakness or paralysis; 5, moribund or dead animals. The mice were examined daily.\nEAE was induced in C57BL/6 female mice that were either treated with a single dose of HTLV FP or vehicle. […] (A) Direct clinical measurement of EAE phenotype in a 5-point scale with increased disease symptoms correlating with higher score value. The data is presented as mean EAE clinical score. (B) Mice were weighed the day before EAE induction, and the change (as a percentage) in weight was recorded. The data is presented as mean change from the initial weight. Student’s t-test was used for statistical analysis. *P<0.05; **P<0.01;***P<0.001. (TIF) Click here for additional data file."}, "[3]": {"test_system": "primary mouse bone marrow derived macrophages (BMDM)", "assay": "Cytokine secretion from TLR-ligand stimulated BM-derived macrophages (ELISA)", "type": "cell-based, mouse (C57Bl/6J)", "details": "HTLV FP at 10μM, stimulated by LTA, LPS or PAM3CSK4 (1 μg/ml), n = 3", "description": "Mouse Femora and tibiae BM cells were isolated from C57Bl/6J mice and cultured in RPMI medium containing FBS (10%), L-glutamine (1%), sodium pyruvate (1%), Pen-strep (1%), and 10 ng/ml recombinant CSF-1 (Peprotech). At day 3, half the medium was replaced, and on day 7, cells were used for in vitro assay, in which 2*10^5 cells were plated per well in a 24-well plate.\nMouse Femora and tibiae BM cells were collected and cultured in RPMI medium containing FBS (10%), L-glutamine (1%), sodium pyruvate (1%), Pen-strep (1%), and 10 ng/ml recombinant CSF-1 (Peprotech). On day 7, cells were stimulated by either (i) LTA, (ii) LPS, or (iii) PAM3CSK4 (1 μg/ml), in the presence of the HTLV FP at 10μM. Media was collected either 5 hours following activation (for TNF-α detection) or 22 hour following activation (for IL-6 detection) and secretion levels were determined according to standard protocols from R&D systems.\nSupplementary file ppat.1007044.s002.tif: S2 Fig BM-derived macrophages activation is not affected by HTLV FP treatment. […] Media was collected either 5 hours following activation (for TNF-α detection) or 22 hour following activation (for IL-6 detection) and cytokines secretion was measured by ELISA assay. […]"}},
  "data": [
    {"sequence": "AVPVAVWLVSALAMGAGVAGGITGSMSLASGKS [HTLV FP, gp21 fusion peptide of HTLV-1, MT-2 isolate]", "values": [
      {"measurement": "toxicity to mouse T-cells, 72 hours", "setting": "[1]; peptide 40μM to 2.5μM, 72 hour incubation", "result": "not toxic up to 4-fold higher than the concentrations used in this study"},
      {"measurement": "toxicity to mouse T-cells, 16 hours", "setting": "[1]; peptides 40μM to 2.5μM, overnight (16 hours) incubation", "result": "not toxic up to 4-fold higher than the concentrations used in this study"},
      {"measurement": "clinical symptoms of a cage of treated mice at DPI 17", "setting": "[2]; additional experiment, S5 and S6 Movies", "result": "mild clinical symptoms"},
      {"measurement": "mice exhibiting no clinical manifestation at DPI 17", "setting": "[2]; additional experiment, S6 Movie", "result": "3 out of 5"},
      {"measurement": "clinical symptoms of a cage of treated mice at DPI 9", "setting": "[2]; initial experiment, S3 Movie", "result": "no observed clinical symptoms"},
      {"measurement": "mice exhibiting mild clinical symptoms at DPI 14", "setting": "[2]; initial experiment, S4 Movie, rest with no observed clinical signs", "result": "1 out of 5"},
      {"measurement": "EAE clinical symptoms, initial experiment", "setting": "[2]; single dose 1mg/kg added to the MOG35-55/CFA emulsion, vs vehicle, terminated at 14 DPI, 5-point scale", "result": "only mild clinical symptoms"},
      {"measurement": "EAE clinical signs, additional experiment", "setting": "[2]; single dose 1mg/kg, HTLV FP, HTLV Scr or vehicle, period 11 to 16 DPI, 5-point scale", "result": "only mild clinical symptoms and weight loss"},
      {"measurement": "locomotory behavior, initial experiment", "setting": "[2]; single dose 1mg/kg, S3 and S4 Movies", "result": "most of the HTLV FP treated mice exhibited normal locomotory behavior"},
      {"measurement": "locomotory behavior, additional experiment", "setting": "[2]; single dose 1mg/kg, S5 and S6 Movies", "result": "better locomotory behavior than the HTLV Scr treated mice"},
      {"measurement": "weight change, initial experiment", "setting": "[2]; single dose 1mg/kg, change from initial weight", "result": "only by minor weight fluctuations"},
      {"measurement": "weight loss, additional experiment", "setting": "[2]; single dose 1mg/kg, period 11 to 16 DPI", "result": "only mild clinical symptoms and weight loss"},
      {"measurement": "first observation of clinical symptoms, initial experiment", "setting": "[2]; single dose 1mg/kg, vehicle-treated mice first observed at 8 DPI", "result": 11, "unit": "DPI"},
      {"measurement": "TNFα secretion from BMDM", "setting": "[3]; media 5 hours following activation", "result": "had no effect on cytokine secretion"},
      {"measurement": "IL6 secretion from BMDM", "setting": "[3]; media 22 hour following activation", "result": "had no effect on cytokine secretion"}
    ]}
  ]
}
